In EP1506011B1, “AN ANTIBODY SELECTIVE FOR A TUMOR NECROSIS FACTOR-RELATED APOPTOSIS-INDUCING LIGAND RECEPTOR AND USES THEREOF” (The UAB Research Foundation, priority 2001, dated 2003):
Residues, ends and D or L forms follow the SMILES beside them. *: point of attachment. Cbz = O=C(OCc1ccccc1)*; CH2F = FC*

What was measured:
[1] = test system: 2LMP human breast cancer xenografts; experiment: TRA-8 therapy alone or with chemotherapy or radiation in mice bearing breast cancer xenografts; type: in vivo, Athymic nude mice; conditions: Figure 25 experiment; 200 µg TRA-8 i.p., adriamycin 6 mg/kg i.v.
Procedure: Athymic nude mice were injected s.c. with 3 x 10^7 2LMP cells. […] The growth of tumors was monitored over time. […] Tumor size and regression rates were determined.
Data from 6 independent experiments were analyzed by individual experiment. Treatment combinations were compared with respect to in vivo anti-tumor efficacy, i.e., inhibition of tumor growth, which was measured as three endpoints; extension of tumor doubling times, percentage of tumor regressions, and growth rates over time. The actual number of days at which the tumor doubled in surface area (product of two diameters) relative to baseline on day 7 after tumor cell injection was used in the doubling time analysis. The nonparametric Kruskal-Wallis test was used for median tumor doubling time comparisons between treatments. Fisher's exact test was used to compare the proportions of tumor regressions and relapse-free regressions across treatment groups. […]
A total of 166 animals, 10 treatment groups, and 6 independent experiments were included in the aggregate analysis. […] The median tumor doubling times were analyzed using the Kruskal-Wallis test and Fisher's exact test was used to compare the proportions of tumor regressions and relapse-free regressions across treatment groups.

2LMP xenografts = experiment: Analysis of apoptosis in xenografts, TUNEL; type: in vivo, Athymic nude mice; conditions: for stained cells: day 14, 100 µg TRA-8 days 7 and 10, adriamycin 3 mg/kg or paclitaxel 10 mg/kg days 8 and 11, untreated 4%; for intense stained cells: day 14, same doses, untreated 1%
Procedure: One group of mice was untreated. The xenografts were dissected for the study of apoptosis on day 14 after tumor cell injection. The reason for the substantial reduction in treatment intensity compared to our standard treatment protocol was to allow adequate tumor tissue for analysis on day 14. Tunel assay for apoptosis in tumor xenografts was performed as follows. Five-micron paraffin sections of tissue were mounted on Superfrost/Plus slides and heated at 58°C for 1 h. Tissue sections were deparaffinized in three changes of xylene and rehydrated with one change of absolute ethanol, 95% ethanol, and 70% ethanol, each in 5-min increments. Then, the sections were placed in Tris-buffered saline (0.5M Tris base, 0.15 M NaCl, 0.0002% Triton X-100, pH 7.6). Apoptotic nuclei were detected using an Apop Tag Peroxidase kit (Intergen, Purchase, NY). Proteinase K (20 µg/ml in distilled deionized H2O) was added to the tissue specimens and incubated at room temperature for 15 min. Endogenous peroxidases were quenched with an aqueous solution of 3% hydrogen peroxide for 5 min. Sections were treated with an equilibration buffer for 30 min and then incubated with the TdT/enzyme (diluted in labeling reaction mix) for 1 h at 37°C using parafilm covers. During this incubation, the TdT enzyme binds the 3'-OH ends of DNA fragments and catalyzes the addition of digoxigenin-labeled and unlabeled deoxynucleotides. Negative controls were incubated with distilled H2O (diluted in labeling reaction mix) instead of the TdT enzyme. A stop buffer was added for 10 min at room temperature to terminate the labeling reaction. An anti-digoxigenin conjugate was added to each slide for 30 min. The chromagen 3,3' DAB was used to visualize the labeled 3' OH end of DNA fragments. The slides were then rinsed in deionized water and lightly counterstained with hematoxylin, dehydrated using graded alcohols and xylene and coverlsipped using Permount. Approximately 10 random fields were evaluated for percentage of Tunel stained and percentage of intensely stained apoptotic bodies throughout the tissue.

PC-3 cells = experiment: Combination study of TRA-8 with Paclitaxel, XTT viability; type: cell-based; conditions: Homo sapiens, PC-3, read-out: cell viability
Procedure: Human prostate cancer cell line PC-3 is obtained from American Tissue Culture Collection (ATCC) and maintained in F-12K Nutrient Mixture (21127-022, Gibco BRL) containing 10% fetal bovine serum (FBS, Hyclone), 1% L-Glutamine-200 mM (25030-149, Gibco BRL) and 0.5% Penicillin Streptomycin Solution (P-7539, Sigma). RPMI1640 medium (MED-008, IWAKI) supplemented with 10% FBS and 0.5% Penicillin Streptomycin Solution is used in the following experiment. Exponentially growing PC-3 cells are collected by trypsinization and washed twice with fresh medium. The cells are then counted, resuspended in fresh medium at a density of 5 x 10^4 cells/ml and distributed in triplicate into flat-bottomed 96 well plates (3598, Corning-Coster) in a total volume of 100 µl/well one day before the start of the experiment. A representative anti-cancer drug, Paclitaxel (169-18611, Wako) dissolved in dimethylsulfoxide (10 mg/ml) is diluted in fresh medium and then added to the 96-well plates containing the cells at 50 µl/well. The final concentrations of dimethylsulfoxide are less than 0.1%. […] After incubation for a further 24 hr, 50 µl of Minimum Essential Medium (11095-098, Gibco BRL) containing 1 mg/ml of XTT and […] of PMS is added to the wells and the plates are incubated for 6 hr. OD450 is then measured by SPECTRA MAX 250 (Molecular Devices) and the cell viability is calculated as follows.

Jurkat cells = experiment: Caspase inhibition assay, Jurkat cells with TRA-8; type: cell-based, human; conditions: 50 ng/ml TRA-8 overnight
Procedure: Cell viability was determined by ATPLite, MTT, and PI exclusion assays after overnight culture. […] Cell viability was determined by ATPLite. […] Cell viability was determined by ATPLite. The results are presented as mean±SEM of triplicate cultures of two experiments. d. […] Cell viability was determined by ATPLite assay. […] Cell viability of hepatocytes was determined by the ATPLite assay. […] Cell viability was determined by the ATPLite assay.

SMILES | inhibition of tumor growth compared to untreated controls [1] | stained cells (2LMP xenografts) | intense stained cells (2LMP xenografts) | viability at 0.2 µM (PC-3 cells) | inhibition of TRA-8-mediated cell death (Jurkat cells)
COc1cccc2c1C(=O)c1c(O)c3c(c(O)c1C2=O)C[C@@](O)(C(=O)CO)C[C@@H]3O[C@H]1C[C@H](N)[C@H](O)[C@H](C)O1 [Adriamycin, doxorubicin] | did not differ from controls | 8% | 6% |  | 
CC(=O)O[C@H]1C(=O)[C@@]2(C)[C@H]([C@H](OC(=O)c3ccccc3)[C@]3(O)C[C@H](OC(=O)[C@H](O)[C@@H](NC(=O)c4ccccc4)c4ccccc4)C(C)=C1C3(C)C)[C@]1(OC(C)=O)CO[C@@H]1C[C@@H]2O [Paclitaxel] |  | 7% | 2% | > 40% | 
CC(NC(=O)C(NC(=O)OCc1ccccc1)C(C)C)C(=O)NC(CC(=O)O)C(=O)CF (stereo not drawn) [Z-VAD] (Cbz-Val-Ala-Asp-CH2F; configuration not given here) |  |  |  |  | completely inhibited
